Converted amounts (≈) assume the structure as drawn.
Key:
C. albicans (ATCC 24433) = assay: Antifungal broth microdilution assay (EUCAST EDef 7.1), C. albicans; format: cell-based; details: Candida albicans, ATCC24433, read-out: Minimum inhibitory concentration (MIC50)
Description: (§1) The anticandidal effect of compounds 6a–6s were screened in accord with the EUCAST definitive (EDef 7.1) method. Ketoconazole was employed as a reference drug. The in vitro growth inhibitory activity of the compounds were tested against C. albicans (ATCC 24433), C. glabrata (ATCC 90030), C. krusei (ATCC 6258) and C. parapsilosis (ATCC 22019). The results were obtained as MIC values and MIC readings were accomplished twice for each chemical agent. After incubating overnight at 37 °C, the fungal strains were sustained in Roswell Park Memorial Institute (RPMI) medium.
(§2) Adjustment of the inoculum density to a 0.5 McFarland turbidity standard was carried out by using a spectrophotometer. The resulting inoculum suspension contained 0.5 × 10^5–2.5 × 10^5 cfu/mL for fungi. The two-fold serial dilutions technique were applied and the test was carried out in Mueller–Hinton broth and RPMI at pH7 and the test was performed for medium at pH7. The last well on the microplates containing only inoculated broth and the last well with no growth of microorganism represent controls and the MIC50 in μg/mL, respectively. DMSO was used as solvent. Further dilutions of the compounds and standard drugs in the RPMI medium were prepared in the required quantities at contcentrations of 800, 400, 200, 100, 50, 25, 12.5, 6.25, 3.125, 1.5625 and 0.78 µg/mL. After a 24 h incubation of the completed plates, resazurin (20 µg/mL) was added into each well in order to observe the fungal growth. […] Each experiment in antifungal assay was performed twice.

C. glabrata (ATCC 90030) = assay: Antifungal broth microdilution assay (EUCAST EDef 7.1), C. glabrata; format: cell-based; details: Nakaseomyces glabratus, ATCC90030, read-out: Minimum inhibitory concentration (MIC50)
Description: as §1, §2

C. krusei (ATCC 6258) = assay: Antifungal broth microdilution assay (EUCAST EDef 7.1), C. krusei; format: cell-based; details: Pichia kudriavzevii, ATCC6258, read-out: Minimum inhibitory concentration (MIC50)
Description: as §1, §2

[1] = test system: C. parapsilosis (ATCC 22019); assay: Antifungal broth microdilution assay (EUCAST EDef 7.1), C. parapsilosis; format: cell-based; details: Lodderomyces parapsilosis, ATCC22019; C. parapsilopsis; read-out: Minimum inhibitory concentration (MIC50)
Description: as §1, §2

[2] = test system: ergosterol biosynthesis in C. krusei; assay: Ergosterol level quantification by LC-MS-MS in C. krusei; format: cell-based; details: Pichia kudriavzevii, mean ± SD
Description: The ergosterol level was determined using the method described by Breivik and Owades with adjustments according to [2]. C. krusei was inoculated with Sabouraud dextrose broth (Difco) supplemented with compounds 6e, 6k, 6r and the positive control, ketoconazole. The cultures were incubated, and the stationary-phase cells were harvested. After the addition of 25% alcoholic potassium hydroxide solution, cell suspensions were separated and incubated. Sterols were extracted by sterile distilled water and chloroform, and then the extract was injected into the LC-MS-MS system (Shimadzu LCMS 8040, Kyoto, Japan). The ergosterol quantity in the negative control samples was considered as 100%. All concentrations were analysed in quadruplicate, and the results were presented as mean ± standard deviation (SD).

MTT cytotoxicity test = format: cell-based; details: mouse, NIH/3T3 mouse embryonic fibroblast cells, NIH/3T3 cell line, read-out: IC50 (cytotoxic activity)
Description: The MTT assay was carried out to determine the cytotoxicity of the synthesized compounds as previously reported in [21]. NIH/3T3 mouse embryonic fibroblast cells (ATCC® CRL-1658™, London, UK) were incubated according to the supplier’s references and seeded at 1 × 10^4 cells into each well of 96-well plates. After this process, cells were treated with the compounds at concentrations ranging from 800 µg/mL to 0.78 µg/mL. By means of the following formula, percent inhibition was evaluated for each concentration.

four Candida species = assay: Antifungal broth microdilution assay, four Candida species taken together; format: cell-based; details: range over four Candida strains
Description: as §1, §2

MIC50 (C. albicans (ATCC 24433))	MIC50 (C. glabrata (ATCC 90030))	MIC50 (C. krusei (ATCC 6258))	MIC50 [1]	minimum inhibitory concentration (MIC), range over all tested fungi (four Candida species)	melting point	Compound	inhibition at 0.78 µg/mL [2]	inhibition at 1.56 µg/mL [2]	inhibition at 3.12 µg/mL [2]	IC50 (MTT cytotoxicity test)
1.56 µg/mL (≈ 2.99 µM)	1.56 µg/mL (≈ 2.99 µM)	1.56 µg/mL (≈ 2.99 µM)	1.56 µg/mL (≈ 2.99 µM)	0.78 to 3.12 µg/mL	149 °C	O=C(CSc1nnc(CCSc2nnc(NC3CCCCC3)s2)o1)Nc1ccc([N+](=O)[O-])cc1 [Compound 6k, 2-[[5-[2-[[5-(Cyclohexylamino)-1,3,4-thiadiazol-2-yl]thio]ethyl]-1,3,4-oxadiazol-2-yl]thio]-N-(4-nitrophenyl)acetamide]	58.7 ± 2.41%	74.7 ± 3.26%	81.3 ± 4.19%	> 500 µg/mL
1.56 µg/mL (≈ 3.08 µM)	1.56 µg/mL (≈ 3.08 µM)	0.78 µg/mL (≈ 1.54 µM)	0.78 µg/mL (≈ 1.54 µM)	0.78 to 3.12 µg/mL	144 °C	O=C(CSc1nnc(CCSc2nnc(NC3CCCCC3)s2)o1)c1ccc([N+](=O)[O-])cc1 [Compound 6e, 2-[[5-[2-[[5-(Cyclohexylamino)-1,3,4-thiadiazol-2-yl]thio]ethyl]-1,3,4-oxadiazol-2-yl]thio]-1-(4-nitrophenyl)ethan-1-one]	76.5 ± 3.67%	82.9 ± 4.72%	88.6 ± 4.52%	> 500 µg/mL
3.12 µg/mL (≈ 5.39 µM)	3.12 µg/mL (≈ 5.39 µM)	1.56 µg/mL (≈ 2.7 µM)	1.56 µg/mL (≈ 2.7 µM)	0.78 to 3.12 µg/mL		O=C(CSc1nnc(CCSc2nnc(NC3CCCCC3)s2)o1)Nc1nc2ccc([N+](=O)[O-])cc2s1 [Compound 6r, 2-[[5-[2-[[5-(Cyclohexylamino)-1,3,4-thiadiazol-2-yl]thio]ethyl]-1,3,4-oxadiazol-2-yl]thio]-N-(6-nitrobenzothiazol-2-yl)acetamide]	61.4 ± 1.88%	70.6 ± 4.23%	80.2 ± 3.7%	406 ± 9.36 µg/mL (≈ 702 µM)

— publication PMC6150172, “Synthesis of Oxadiazole-Thiadiazole Hybrids and Their Anticandidal Activity” (Molecules : A Journal of Synthetic Chemistry and Natural …, 2017)
